This note sets out measurements from patent US11395803B2, “Composition for controlled release of physiologically active substances and process for its preparation” (BIOSCREEN TECHNOLOGIES S.R.L., priority 2017, dated 2022).

The nature of series [1]: Post-ruminal digestibility, in vitro (pharmaceutical dissolver, Boisen Test).
Method: Whereas, the term “post-ruminal digestibility” of a substance means the percentage amount by weight of substance that is freed from the coating exclusively in the post-ruminal tract, dissolving and so making it digestible or absorbable, with respect to the total amount by weight of the orally administered substance.
The experimental conditions of use were 39° C., 15 rpm, 8 hours presence in the solution with “ruminal” pH of about 6.8. • Daisy^II ANKOM: commercially available laboratory artificial rumen, for determining the degree of ruminal bypass. The experimental conditions of use were 39° C., 8 hours presence in ruminal conditions, buffer solution at “ruminal” pH with insertion of “ruminal inoculum” and re-creation of ruminal anaerobiosis according to a university procedure known to those skilled in the art. The pH normally tested in the quality control phase is 6.8. • Pharmaceutical dissolver for determining the degree of post-ruminal digestibility. The experimental conditions of use followed the procedure known to experts in the field as “Boisen Test” and, in particular, they were: • 39° C., 30 rpm, 2 h, buffer solution with “gastric” pH (2.0)+pepsin inoculum. • 39° C., 30 rpm, 4 h, buffer solution with “intestinal” pH (6.8)+pancreatine inoculum. • 39° C., 30 rpm, 18 h, buffer solution with “intestinal” pH (6.8)+lipase and bile extract inoculum. […]
Series [2] in a line: Degree of ruminal bypass, in vitro (pharmaceutical dissolver / Daisy II ANKOM artificial rumen). The method, then:
In the context of the present invention, the term “ruminal by-pass” indicates the percentage amount by weight of substance reaching the animal post-ruminal area, namely the stomach and the intestine, with respect to the total amount by weight of the orally administered substance.
The experimental conditions of use were 39° C., 15 rpm, 8 hours presence in the solution with “ruminal” pH of about 6.8. • Daisy^II ANKOM: commercially available laboratory artificial rumen, for determining the degree of ruminal bypass. The experimental conditions of use were 39° C., 8 hours presence in ruminal conditions, buffer solution at “ruminal” pH with insertion of “ruminal inoculum” and re-creation of ruminal anaerobiosis according to a university procedure known to those skilled in the art. The pH normally tested in the quality control phase is 6.8. • Pharmaceutical dissolver for determining the degree of post-ruminal digestibility. The experimental conditions of use followed the procedure known to experts in the field as “Boisen Test” and, in particular, they were: • 39° C., 30 rpm, 2 h, buffer solution with “gastric” pH (2.0)+pepsin inoculum. • 39° C., 30 rpm, 4 h, buffer solution with “intestinal” pH (6.8)+pancreatine inoculum. • 39° C., 30 rpm, 18 h, buffer solution with “intestinal” pH (6.8)+lipase and bile extract inoculum.
Then the microgranules were subjected to an evaluation of the degree of ruminal by-pass, post-ruminal digestibility and total bioavailability using the Boisen method. For a complete description of the Boisen method, reference is made to the publication S. Boisen, J. A. Fernàndez “Prediction of total tract digestibility of energy feedstuffs and […] by in vitro analyses” Animal Feed Science Technology 68, 277-286, 1997.

Series [3] is described as follows: Total bioavailability, in vitro (combination of ruminal bypass and post-ruminal digestibility, Boisen method).
[4] abbreviates: theoretical administration of 100 g of choline chloride.
Setting [5] is: theoretical administration of 200 g of product.

`C[N+](C)(C)CCO.[Cl-]` [Product A, choline chloride]: the “Choline Chloride in faeces” value in series [1] (setting [4]) and in series [1] (setting [5]) was 0 g each time. Besides, the “Bypassed Choline Chloride” value in series [2] (setting [4]) and in series [2] (setting [5]) was 0 g each time. Moreover, the results for the “Choline Chloride lost in the rumen in 8 h” value in series [2] (setting [4]) and in series [2] (setting [5]) were 101 g and 198 g, respectively. In addition, the “Bioavailable Choline Chloride” value in series [3] (setting [4]) and in series [3] (setting [5]) was 0 g each time.
